Values of other authors, collected in patent US8506932B2, “Tetracyclic indole derivatives as in vivo imaging agents and having peripheralbenzodiazepine receptor affinity (PBR)” (Hammersmith Imanet Limited, priority 2005, dated 2013).

How the values were obtained:
[1] = stated as known limitation
PBR = PBR (Homo sapiens, UniProt P30536); conditions: stated as known limitation
Sequence of PBR (P30536 whole entry, species assumed): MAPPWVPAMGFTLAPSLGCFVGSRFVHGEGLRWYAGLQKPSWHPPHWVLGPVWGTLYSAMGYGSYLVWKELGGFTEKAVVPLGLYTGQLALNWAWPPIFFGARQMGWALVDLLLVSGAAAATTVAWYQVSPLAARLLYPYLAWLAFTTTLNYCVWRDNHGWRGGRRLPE

CC[C@@H](C)N([11CH3])C(=O)c1cc2ccccc2c(-c2ccccc2Cl)n1 [(R)-[11C]PK11195]
protein binding [1]: high
specific to non-specific binding (PBR): low
